Reference: patent US6127519A, “Calcitonin derivatives” (Tsumura & Co., priority 1990, dated 2000)
Bridge positions count the residues as written; N and C are the ends. Peptide text beside a SMILES is read from it.

System: calcium concentration in the serum
Test: Test 1: reduction of calcium level in serum after tail vein administration to rats
Format: in vivo, rats of the Wistar strain
Conditions: 1 ml/kg tail vein, female Wistar rats
Description: Six-weeks-old female rats of the Wistar strain (each group consisting of 4 rats) were used as the test animal, and the peptides of the present invention obtained in the examples given hereinafter were tested at concentrations adjusted with a 1% aqueous solution of sodium acetate (pH 4,0) to which 0.1% bovine serum albumin (BSA) was added. The solution was adjusted to a concentration of 166 μg/ml 830 ng/ml or 83 ng/ml and administered with the tail vein in an amount of 1 ml/kg. The back of the rat was fixed and blood was collected just before the administration, and at predetermined intervals after the administration, from the neck vein. The amount of blood collected each time was 0.3 ml. The sampled blood was subjected to centrifugal separation at 3500 rpm for 20 minutes to separate serum and the calcium content in the separated serum was measured by TBA-380 (supplied by Toshiba) using a Wako calcium-measuring kit (o-cpc method), and the ratio of reduction of the calcium concentration in the serum was determined.

[1] = concentration 830 ng/ml, 0 hour (just before administration)
[2] = concentration 830 ng/ml, 1 hour
[3] = concentration 830 ng/ml, 2 hours
[4] = concentration 830 ng/ml, 4 hours
[5] = concentration 830 ng/ml, 6 hours
[6] = concentration 83 ng/ml, 0 hour (just before administration)
[7] = concentration 83 ng/ml, 2 hours
[8] = concentration 83 ng/ml, 4 hours
[9] = concentration 83 ng/ml, 6 hours

SMILES	Serum calcium level as percent of pre-dose baseline [1]	Serum calcium level as percent of pre-dose baseline [2]	Serum calcium level as percent of pre-dose baseline [3]	Serum calcium level as percent of pre-dose baseline [4]	Serum calcium level as percent of pre-dose baseline [5]	Serum calcium level as percent of pre-dose baseline [6]	Serum calcium level as percent of pre-dose baseline (concentration 83 ng/ml, 1 hour)	Serum calcium level as percent of pre-dose baseline [7]	Serum calcium level as percent of pre-dose baseline [8]	Serum calcium level as percent of pre-dose baseline [9]
CC[C@H](C)[C@H](NC(=O)[C@H](C)NC(=O)[C@@H](NC(=O)[C@H](CCC(N)=O)NC(=O)[C@@H]1CCCN1C(=O)[C@H](Cc1ccc(O)cc1)NC(=O)[C@@H](NC(=O)[C@H](CCC(N)=O)NC(=O)CNC(=O)[C@H](CCCCN)NC(=O)[C@H](Cc1c[nH]cn1)NC(=O)[C@H](CC(C)C)NC(=O)[C@H](CCC(=O)O)NC(=O)[C@H](CCC(N)=O)NC(=O)[C@H](CO)NC(=O)[C@H](CC(C)C)NC(=O)[C@H](CCCCN)NC(=O)CNC(=O)[C@H](CC(C)C)NC(=O)[C@H](CCSC)NC(=O)[C@@H]1CSSC[C@H](N)C(=O)NCC(=O)N[C@@H](CC(N)=O)C(=O)N[C@@H](CC(C)C)C(=O)N[C@@H](CO)C(=O)N[C@@H]([C@@H](C)O)C(=O)N1)[C@@H](C)O)[C@@H](C)O)C(=O)NCC(=O)N[C@@H](CO)C(=O)NCC(=O)N[C@H](C(=O)N1CCC[C@H]1C(N)=O)[C@@H](C)O [Peptide No. 8] (H-CGNLSTCMLGKLSQELHKGQTYPQTAIGSGTP-NH2; disulfide 1-7)	100.0%	76.6%	78.2%	99.7%	96.3%					
CC[C@H](C)[C@H](NC(=O)[C@H](C)NC(=O)[C@@H](NC(=O)[C@H](CCC(N)=O)NC(=O)[C@@H]1CCCN1C(=O)[C@H](Cc1ccc(O)cc1)NC(=O)[C@@H](NC(=O)[C@H](CCC(N)=O)NC(=O)[C@H](CC(C)C)NC(=O)[C@H](CCCCN)NC(=O)[C@H](Cc1c[nH]cn1)NC(=O)[C@H](CC(C)C)NC(=O)[C@H](CCC(=O)O)NC(=O)[C@H](CCC(N)=O)NC(=O)[C@H](CO)NC(=O)[C@H](CC(C)C)NC(=O)[C@H](CCCCN)NC(=O)CNC(=O)[C@H](CC(C)C)NC(=O)CNC(=O)[C@@H]1CSSC[C@H](N)C(=O)NCC(=O)N[C@@H](CC(N)=O)C(=O)N[C@@H](CC(C)C)C(=O)N[C@@H](CO)C(=O)N[C@@H]([C@@H](C)O)C(=O)N1)[C@@H](C)O)[C@@H](C)O)C(=O)NCC(=O)N[C@H](C(=O)NCC(=O)N[C@@H](C)C(=O)N1CCC[C@H]1C(N)=O)C(C)C [Peptide No. 9] (H-CGNLSTCGLGKLSQELHKLQTYPQTAIGVGAP-NH2; disulfide 1-7)	100.0%	72.8%	78.4%	86.8%	82.4%	100.0%	81.0%	87.5%	84.0%	83.2%
CC[C@H](C)[C@H](NC(=O)[C@H](C)NC(=O)[C@@H](NC(=O)[C@H](CCC(N)=O)NC(=O)[C@@H]1CCCN1C(=O)[C@H](Cc1ccc(O)cc1)NC(=O)[C@@H](NC(=O)[C@H](CCC(N)=O)NC(=O)[C@H](CC(C)C)NC(=O)[C@H](CCCCN)NC(=O)[C@H](Cc1c[nH]cn1)NC(=O)[C@H](CC(C)C)NC(=O)[C@H](CCC(=O)O)NC(=O)[C@H](CCC(N)=O)NC(=O)[C@H](CO)NC(=O)[C@H](CC(C)C)NC(=O)[C@H](CCCCN)NC(=O)CNC(=O)[C@H](CC(C)C)NC(=O)[C@H](C)NC(=O)[C@@H]1CSSC[C@H](N)C(=O)NCC(=O)N[C@@H](CC(N)=O)C(=O)N[C@@H](CC(C)C)C(=O)N[C@@H](CO)C(=O)N[C@@H]([C@@H](C)O)C(=O)N1)[C@@H](C)O)[C@@H](C)O)C(=O)NCC(=O)N[C@H](C(=O)NCC(=O)N[C@@H](C)C(=O)N1CCC[C@H]1C(N)=O)C(C)C [Peptide No. 10] (H-CGNLSTCALGKLSQELHKLQTYPQTAIGVGAP-NH2; disulfide 1-7)	100.0%	70.2%	65.4%	76.1%	84.2%	100.0%	68.7%	77.9%	90.6%	81.6%
CC[C@H](C)[C@H](NC(=O)[C@H](C)NC(=O)[C@@H](NC(=O)[C@H](CCC(N)=O)NC(=O)[C@@H]1CCCN1C(=O)[C@H](Cc1ccc(O)cc1)NC(=O)[C@@H](NC(=O)[C@H](CCC(N)=O)NC(=O)[C@H](CC(C)C)NC(=O)[C@H](CCCCN)NC(=O)[C@H](Cc1c[nH]cn1)NC(=O)[C@H](CC(C)C)NC(=O)[C@H](CCC(=O)O)NC(=O)[C@H](CCC(N)=O)NC(=O)[C@H](CO)NC(=O)[C@H](CC(C)C)NC(=O)[C@H](CCCCN)NC(=O)CNC(=O)[C@H](CC(C)C)NC(=O)[C@@H](NC(=O)[C@@H]1CSSC[C@H](N)C(=O)NCC(=O)N[C@@H](CC(N)=O)C(=O)N[C@@H](CC(C)C)C(=O)N[C@@H](CO)C(=O)N[C@@H]([C@@H](C)O)C(=O)N1)C(C)C)[C@@H](C)O)[C@@H](C)O)C(=O)NCC(=O)N[C@H](C(=O)NCC(=O)N[C@@H](C)C(=O)N1CCC[C@H]1C(N)=O)C(C)C [Peptide No. 11] (H-CGNLSTCVLGKLSQELHKLQTYPQTAIGVGAP-NH2; disulfide 1-7)	100.0%	69.1%	62.7%	77.2%	86.2%	100.0%	69.7%	82.8%	83.9%	81.0%
CC[C@H](C)[C@H](NC(=O)[C@H](C)NC(=O)[C@@H](NC(=O)[C@H](CCC(N)=O)NC(=O)[C@@H]1CCCN1C(=O)[C@H](Cc1ccc(O)cc1)NC(=O)[C@@H](NC(=O)[C@H](CCC(N)=O)NC(=O)[C@H](CC(C)C)NC(=O)[C@H](CCCCN)NC(=O)[C@H](Cc1c[nH]cn1)NC(=O)[C@H](CC(C)C)NC(=O)[C@H](CCC(=O)O)NC(=O)[C@H](CCC(N)=O)NC(=O)[C@H](CO)NC(=O)[C@H](CC(C)C)NC(=O)[C@H](CCCCN)NC(=O)CNC(=O)[C@H](CC(C)C)NC(=O)[C@@H]1CCCN1C(=O)[C@@H]1CSSC[C@H](N)C(=O)NCC(=O)N[C@@H](CC(N)=O)C(=O)N[C@@H](CC(C)C)C(=O)N[C@@H](CO)C(=O)N[C@@H]([C@@H](C)O)C(=O)N1)[C@@H](C)O)[C@@H](C)O)C(=O)NCC(=O)N[C@H](C(=O)NCC(=O)N[C@@H](C)C(=O)N1CCC[C@H]1C(N)=O)C(C)C [Peptide No. 12] (H-CGNLSTCPLGKLSQELHKLQTYPQTAIGVGAP-NH2; disulfide 1-7)	109.0%	77.0%	86.8%	85.8%	88.0%	100.0%	88.0%	92.4%	83.4%	84.0%
